Earlier results, collected in patent US20080153927A1, “ALPHA-2B RECEPTOR AGONIST AND RELAXANT COMPOSITIONS FOR TREATING GASTROINTESTINAL MOTILITY DISORDERS” (Allergan, Inc., priority 2006, published 2008).

initial half-life (in vivo): 1.2 h
time to maximum serum concentration (serum): about 1 hour
SMILES: CN(C)[C@@H](CCOc1cccc2ccccc12)c1ccccc1 [Dapoxetine]
